Assay results: PMC4490394 (Scientific Reports, 2015)
Substitutions are numbered along the chain they refer to. Where “and” joins values, the source holds several entries; their conditions need not be identical. Equal entries are not always repeated. Where two headings read alike, the source gives them in different places.

Columns and labels:
[1] = Brain penetrance, brain/plasma ratio from AUC0-24; format: in vivo; details: male, BALB/c or Balb/cOlaHsd nude, mouse, mice, single oral dose of 10 mg/kg, based on AUC0–24
[2] = tested on: VCaP cells; assay: VCaP proliferation assay (WST-1); format: cell-based; details: Homo sapiens, 96 h
[3] = tested on: subcutaneous VCaP tumors; assay: Castration-resistant VCaP xenograft, tumor volume; format: in vivo, castrated nude mice
[4] = Body weight of mice bearing subcutaneous VCaP xenograft tumors; format: in vivo, castrated nude mice; details: enzalutamide 20 mg/kg qd oral, individual animals, vs BW before treatment
Method: BALB/c nude male mice (7 weeks old from Charles River, Germany) were subcutaneously injected with 2 million VCaP cells in 100 μL of RPMI-1640 medium and Matrigel (BD) (1:1). Tumor growth was monitored twice weekly by caliper measurements. The volume of the tumor was calculated according to the formula W^2 × L/2 (mm^3), where W is the shorter and L the longer diameter of the tumor. When the average tumor volume reached ~200 mm^3, mice were castrated or SHAM-operated under Avertin anesthesia. […] For all in vivo studies, Macrocol® (Merck) + propylene glycol +5% glucose (50:30:20, v/v/v) was used as a vehicle.

[5] = Pharmacokinetic parameters in mice after 7 days oral dosing; format: in vivo; details: male, BALB/c or Balb/cOlaHsd nude, mouse, plasma, 20 mg/kg qd oral, read-out: AUC24
Method: Control mice received vehicle. […] Brain samples (without olfactory bulbs and medulla oblongata) from each group and time point were pooled and homogenized before the analysis. […] Plasma and brain concentration vs. time were evaluated by noncompartmental analysis using WinNonlin® Professional v. 5.2 software (Pharsight Corporation). Brain/plasma ratios were calculated based on AUC0–24 values for plasma and brain.

[6] = tested on: serum testosterone; assay: Serum testosterone in intact nude mice bearing orthotopic VCaP tumors; format: in vivo; details: 20 mg/kg qd oral, 3 weeks, p < 0.05 vs vehicle
Method: One million VCaP cells in 20 μL of RPMI-1640 medium were orthotopically injected into the dorsal prostate lobes of athymic nude male mice (7 weeks old from Harlan Winkelman, France). Tumor growth was followed by measuring serum PSA (ProStatus™ PSA EQM Kits, Wallac, Finland). […] At autopsy, blood samples were collected by heart puncture, clotted overnight at +4 °C, and centrifuged. For serum testosterone determination, 25-μL aliquots were extracted twice with 2 mL of diethyl ether and evaporated under nitrogen to dryness. The residues were reconstituted in PBS and measured using a standard radioimmunoassay as described previously.

[7] = biological target: T1, AR(T877A) (Homo sapiens, UniProt P10275, T878A)
T1 sequence (P10275 1-920 T878A): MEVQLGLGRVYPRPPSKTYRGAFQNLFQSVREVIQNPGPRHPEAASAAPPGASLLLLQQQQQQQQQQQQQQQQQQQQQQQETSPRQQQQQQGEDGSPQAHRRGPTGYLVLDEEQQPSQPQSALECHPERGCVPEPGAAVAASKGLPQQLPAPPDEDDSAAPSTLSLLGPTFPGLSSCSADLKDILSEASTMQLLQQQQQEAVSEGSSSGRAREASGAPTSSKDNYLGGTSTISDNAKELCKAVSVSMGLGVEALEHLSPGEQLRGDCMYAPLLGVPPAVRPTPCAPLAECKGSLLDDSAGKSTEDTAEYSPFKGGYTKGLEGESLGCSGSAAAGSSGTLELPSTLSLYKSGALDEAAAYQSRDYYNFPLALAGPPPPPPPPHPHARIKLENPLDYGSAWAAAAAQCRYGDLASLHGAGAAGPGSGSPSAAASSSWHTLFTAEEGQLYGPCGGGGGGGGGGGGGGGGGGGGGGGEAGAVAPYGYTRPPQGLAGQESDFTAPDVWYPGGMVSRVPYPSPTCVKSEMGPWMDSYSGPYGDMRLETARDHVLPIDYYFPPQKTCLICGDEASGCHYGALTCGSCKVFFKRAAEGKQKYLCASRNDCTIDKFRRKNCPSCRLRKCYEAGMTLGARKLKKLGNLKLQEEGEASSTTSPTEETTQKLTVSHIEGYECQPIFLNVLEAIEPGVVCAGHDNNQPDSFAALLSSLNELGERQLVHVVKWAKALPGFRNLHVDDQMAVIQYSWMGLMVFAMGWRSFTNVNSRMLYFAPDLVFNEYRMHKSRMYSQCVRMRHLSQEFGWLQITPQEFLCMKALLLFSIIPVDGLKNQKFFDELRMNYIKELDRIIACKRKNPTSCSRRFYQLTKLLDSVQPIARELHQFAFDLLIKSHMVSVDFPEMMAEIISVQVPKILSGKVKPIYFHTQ

[8] = tested on: AR nuclear translocation in HS-HEK293 cells; details: 0.3 or 1.0 μM test compound with 0.3 nM testosterone, HS-HEK293 cells
[9] = biological target: T2, AR(F876L) (Homo sapiens, UniProt P10275, F877L)
T2 sequence (P10275 1-920 F877L): T1 sequence (P10275 1-920 T878A) with F877L, A878T

[10] = biological target: T3, AR(W741L) (Homo sapiens, UniProt P10275, W742L)
T3 sequence (P10275 1-920 W742L): T1 sequence (P10275 1-920 T878A) with W742L, A878T

[11] = set-up: method as in PMID 15470213; details: CRPC ref 7; cited from earlier work

## CNC(=O)c1ccc(N2C(=S)N(c3cnc(C#N)c(C(F)(F)F)c3)C(=O)C23CCC3)cc1F [ARN-509, reference compound]
[1]
  Kp: 0.62
[2]; read-out: IC50, androgen-induced VCaP cell proliferation
  IC50: 420 nM

## CNC(=O)c1ccc(N2C(=S)N(c3ccc(C#N)c(C(F)(F)F)c3)C(=O)C2(C)C)cc1F [Enzalutamide, enzalutamide, reference compound]
[3]; 20 mg/kg oral once daily, 37 days, p < 0.05 vs castrated untreated mice
  antitumor activity (tumor volume): inhibition of tumor growth
[4]
  Change in body weight (%) d 3: 0.0% (2×) and -6.2% and -2.7% and -0.6% and -0.5% and -2.0% and 1.3% and 0.5%
  Change in body weight (%) d 9: 0.4% and 1.7% (2×) and 3.6% and 0.6% and 1.3% and 2.9% and 1.5% and 0.5%
  Change in body weight (%) d 16: 1.8% (2×) and 1.2% and 3.0% and 2.6% and 6.8% and 5.6% and 5.5% and 8.7%
  Change in body weight (%) d 23: 1.0% and -4.8% and -1.4% and 1.8% and -2.2% and -0.9% and -2.9% and -3.0%
  Change in body weight (%) d 30: 2.1% and -4.0% and -2.7% and 3.0% and 0.9% and 1.9% and -2.0% and -0.9%
  Change in body weight (%) d 37: 5.1% and -0.9% and 0.5% (2×) and 3.6% and 3.5% and 7.2% and 1.3%
[5]
  AUC: 479 µg·h/mL
[6]
  effect on serum testosterone levels: increased significantly

## CC(=O)c1cc(C(=O)N[C@@H](C)Cn2ccc(-c3ccc(C#N)c(Cl)c3)n2)n[nH]1 [ORM-15341]
[7]
  functional activity (agonist/antagonist) on AR(T877A): full antagonists
[8]
  effect on testosterone-induced nuclear translocation of AR: inhibit
[9]
  functional activity (agonist/antagonist) on AR(F876L): full antagonists
[2]; 0.1 nM mibolerone, steroid-depleted medium, 4 days, WST-1, read-out: IC50, androgen-induced VCaP cell proliferation
  IC50: 170 nM
[10]
  functional activity (agonist/antagonist) on AR(W741L): full antagonists

## CC(O)(CS(=O)(=O)c1ccc(F)cc1)C(=O)Nc1ccc(C#N)c(C(F)(F)F)c1 (stereo not shown) [bicalutamide, reference compound]
[3]; 20 mg/kg per os, data not shown
  antitumor activity: does not have any antitumor activity
[8]
  effect on testosterone-induced nuclear translocation of AR: failed to block

## CC(=O)O[C@@]12CO[C@@H]1C[C@H](O)[C@@]1(C)C(=O)[C@H](O)C3=C(C)[C@@H](OC(=O)[C@H](O)[C@@H](NC(=O)OC(C)(C)C)c4ccccc4)C[C@@](O)([C@@H](OC(=O)c4ccccc4)[C@H]21)C3(C)C [docetaxel]
[11]
  median prolongation of survival: 2.9 months
